Article PMC6760193, “Characterization of artificially re-pigmented ARPE-19 retinal pigment epithelial cell model” (Scientific Reports, 2019)

How the values were obtained:
ARPE-19mel cells = assay: Melanosomal drug uptake assay in re-pigmented ARPE-19mel cells (medium concentration vs non-pigmented ARPE-19, LC-MS/MS); assay type: in vitro ADME, human; conditions: 4 µM drug, 20 hours; for Melanosomal drug uptake (%), average: serum-free medium; for Melanosomal drug uptake (fraction of administered compound in the melanosomes): ARPE-19mel cells, pigmentation stage not specified
Experimental: Uptake of six different drugs (Table 1) was studied in non-pigmented ARPE-19 cells and pigmented ARPE-19mel cells. The melanosome administration was conducted as described above using three melanosome doses (corresponding to 7 µg, 20 µg and 68 µg of melanin). These melanosome doses correspond to 10, 30 and 100% levels of pigmentation. The highest external melanosome dose (68 µg) results in similar cellular pigmentation with the native pRPE (i.e. normalized as 100%).
Drug uptake study was initiated 4–5 days after melanosome feeding. The experiments were conducted in 2–6 replicate wells, separately for each compound. The cells were exposed to 4 µM of each drug for 20 hours in serum-free culture medium. Then, samples from the medium samples were collected and diluted 2:5 into acetonitrile (ACN) with 0.2% formic acid. The samples were centrifuged at 15 000 g for 5 min, and the supernatant was collected and diluted 1:10 into mixture of ACN-water (60:40). Finally, internal standards were added at final concentration of 100 nM. Different internal standards were used for each compound (Table 1). The melanin amounts in the wells were measured after the uptake experiment (see above).
Drugs were quantitated with liquid chromatography mass spectrometry (LC-MS) analyses that were carried out with Acquity i-class UPLC (Waters, Massachusetts, USA) coupled with Xevo TQ-S triple quadrupole mass spectrometry (Waters). […] Chromatographic separation for all six compounds was carried out using Waters HSS-T3 column (2.1 × 100 mm, 1.8 µm) and gradient run. The mobile phases were prepared as binary phases. Phase A was purified water with 0.1% of formic acid and phase B contained 100% lc-ms grade acetonitrile (Chromasolv^TM). […] Total run time was 9 minutes including column flush and stabilization to the initial state. […] Flow through needle system was used.
Electrospray ionization on positive mode was used in the analyses. […] Nitrogen was used as a desolvation gas (Aga, Helsinki, Finland) and argon as a collision gas (Aga). Capillary and cone voltages, collision energy and dwell time were tuned individually for each compound (Table 2). […] Minimum of eight calibration curve levels were used for quantification while quality control (QC) samples used to monitor precision and bias of the assay. Data were processed with MassLynx V4.1 software (Waters).
The melanosomal drug uptake was calculated using the Eq. 1 below:1 Melanosomaldruguptake(%)=(1−CmediumARPE−19mel/CmediumARPE−19)×100%

[1] = parameters: method as in PMID 29859954, PMID 28479360; conditions: descriptors originally obtained with ACDLabs Software, cited from earlier work; for logD7.4 (predicted): pH 7.4
[2] = 10 % stage of pigmentation (7 µg melanin/well)
[3] = 30 % stage of pigmentation (20 µg melanin/well)
[4] = 100 % stage of pigmentation (68 µg melanin/well)

Row | Melanosomal drug uptake (%), average (ARPE-19mel cells; [2]) | Melanosomal drug uptake (%), average (ARPE-19mel cells; [3]) | Melanosomal drug uptake (%), average (ARPE-19mel cells; [4]) | Melanosomal drug uptake (fraction of administered compound in the melanosomes) (ARPE-19mel cells) | Structure (SMILES) | logD7.4 (predicted) [1] | pKa, most acidic [1] | pKa, most basic [1]
1 | 80.3% | 93.3% | 96.7% | > 90% | CCN(CC)CCCC(C)Nc1ccnc2cc(Cl)ccc12 (centres unmarked) [chloroquine] |  |  | 
2 | 0.8% | 1.2% | 3.7% | < 5% | O=C(O)Cc1ccccc1Nc1c(Cl)cccc1Cl [diclofenac] | 1.4 |  | 
3 | 5.1% | 3.9% | 3.5% | < 5% | CN(Cc1cnc2nc(N)nc(N)c2n1)c1ccc(C(=O)N[C@@H](CCC(=O)O)C(=O)O)cc1 [methotrexate] | −5.1 | 3.5 | 
4 | 11.5% | 23.5% | 30.2% |  | CC[C@@H]1C(=O)OC[C@@H]1Cc1cncn1C [pilocarpine] | −0.4 |  | 7.02
5 | 34.1% | 76.1% | 92.2% | > 90% | CC(C)NCC(O)COc1cccc2ccccc12 (centres unmarked) [propranolol] |  |  | 
6 | 17.6% | 31.2% | 48.2% |  | CC(C)(C)NC[C@H](O)COc1nsnc1N1CCOCC1 [timolol] | −0.6 |  | 9.4
